According to the NIST ThermoML archive (doi:10.1021/acs.jced.6b00327):
Numbers after ± are expanded uncertainties.

Experiment: xn = mol fraction of the nth substance listed
Settings: Liquid, Buoyancy - hydrostatic balance with magnetic suspension - one sinker

**Q.** What does the source list for F/C=C/C(F)(F)F [trans-1,3,3,3-tetrafluoropropene] + CCC?
**A.** mass density (253.14 K, x1 = 0.4965): 913.53 ± 4.4 kg/m3; mass density (253.3 K, x1 = 0.1746): 680.21 ± 4.3 kg/m3; mass density (253.44 K, x1 = 0.8803): 1197.23 ± 4.3 kg/m3; mass density (253.45 K, x1 = 0.7006): 1067.62 ± 4.5 kg/m3; mass density (256.11 K, x1 = 0.1746): 676.35 ± 4.3 kg/m3; mass density (258.14 K, x1 = 0.7006): 1056.03 ± 4.4 kg/m3; mass density (258.17 K, x1 = 0.4965): 903.57 ± 4.4 kg/m3; mass density (258.2 K, x1 = 0.8803): 1186.23 ± 4.4 kg/m3; mass density (261.14 K, x1 = 0.1746): 670.01 ± 4.2 kg/m3; mass density (263.15 K, x1 = 0.7006): 1043.42 ± 4.4 kg/m3; mass density (263.16 K, x1 = 0.4965): 892.67 ± 4.3 kg/m3; mass density (263.17 K, x1 = 0.8803): 1175.37 ± 4.4 kg/m3; mass density (265.18 K, x1 = 0.1746): 662.22 ± 4.2 kg/m3; mass density (268.17 K, x1 = 0.7006): 1030.6 ± 4.4 kg/m3; mass density (268.19 K, x1 = 0.4965): 884.02 ± 4.2 kg/m3; mass density (268.2 K, x1 = 0.8803): 1162.41 ± 4.4 kg/m3; mass density (269.18 K, x1 = 0.1746): 655.74 ± 4.2 kg/m3; mass density (273.18 K, x1 = 0.7006): 1017.6 ± 4.3 kg/m3; mass density (273.18 K, x1 = 0.8803): 1149.12 ± 4.4 kg/m3; mass density (273.2 K, x1 = 0.1746): 648.23 ± 4.2 kg/m3; mass density (273.2 K, x1 = 0.4965): 873.27 ± 4.2 kg/m3; mass density (278.19 K, x1 = 0.8803): 1135.29 ± 4.4 kg/m3; mass density (278.2 K, x1 = 0.1746): 640.01 ± 4.2 kg/m3; mass density (278.2 K, x1 = 0.7006): 1004.24 ± 4.3 kg/m3; mass density (278.24 K, x1 = 0.4965): 862 ± 4.2 kg/m3; mass density (283.18 K, x1 = 0.1746): 630.77 ± 4.1 kg/m3; mass density (283.19 K, x1 = 0.4965): 851.76 ± 4.1 kg/m3; mass density (283.19 K, x1 = 0.8803): 1121.17 ± 4.3 kg/m3; mass density (283.2 K, x1 = 0.7006): 991.21 ± 4.2 kg/m3; mass density (288.21 K, x1 = 0.8803): 1106.57 ± 4.3 kg/m3; mass density (288.22 K, x1 = 0.7006): 977.85 ± 4.1 kg/m3; mass density (288.25 K, x1 = 0.4965): 842.07 ± 4 kg/m3; mass density (293.28 K, x1 = 0.4965): 831.58 ± 3.9 kg/m3; mass density (293.28 K, x1 = 0.7006): 963.78 ± 4.1 kg/m3; mass density (293.28 K, x1 = 0.8803): 1091.31 ± 4.3 kg/m3
